Reference: patent US10322138B2, “Treatment of depressive disorders” (Pherin Pharmaceuticals, Inc., priority 2012, dated 2019)
Where two headings read alike, the source gives them in different places.

Experiments:
[1] = test system: individuals diagnosed with MDD and insomnia; conditions: cited from earlier work
pregnant rats = test: Reproductive toxicity study; type: in vivo, rat; conditions: intravenous doses up to 2.5 mg/Kg/day during organogenesis
glucocorticoid receptors = glucocorticoid receptors (Homo sapiens, UniProt P04150); test: In vitro agonist/antagonist activity on steroid receptors
progestin receptors = progestin receptors (Homo sapiens, UniProt P06401); test: as above
rats [2] = test: Intranasal and intravenous toxicity up to 2.5 mg/Kg; type: in vivo, rat; conditions: intranasal and intravenous up to 2.5 mg/Kg
[3] = test system: receptors of indoleamine, monoamines, ion channels, receptors, peptides, opioid, glutamate neurotransmitter, steroid hormones, or glucocorticoid receptors; test: In vitro receptor affinity panel; type: binding
healthy individuals = test: Phase 1 open-label, flexible dose-escalation trial; type: in vivo, human
Experimental: In a Phase 1 open-label, flexible dose-escalation trial, the pregn-4-en-20-yn-3-one was formulated as an aqueous solution at 8 μg/mL, with 2% propylene glycol and 2% ethanol, and was administered with a Valois intranasal metered spray pump delivering 50 μL, so that the pregn-4-en-20-yn-3-one was administered at 400 ng/spray. The low-dose group received 400, 400, 1600, 1600, 2800, and 2800 ng/day over the six-day period of the trial, while the high-dose group received 4000, 4000, 5200, 5200, 6400, and 6400 ng/day over the six-day period of the trial. The trial enrolled 10 individuals, 7 male and 3 female, between 21 and 38 years old, healthy, free of any Axis I diagnosis according to the DSM-IV-TR, and not taking any central nervous system medications.

mice = test: Intranasal and intravenous toxicity up to 2.5 mg/Kg; type: in vivo, mouse; conditions: intranasal and intravenous up to 2.5 mg/Kg
rabbits = test: as above; type: in vivo, rabbit; conditions: intranasal and intravenous up to 2.5 mg/Kg
bone marrow = test: In vivo bone marrow micronucleus test
androgen receptors = androgen receptors (Homo sapiens, UniProt P10275); test: In vitro agonist/antagonist activity on steroid receptors
estrogen receptors = test: as above
pregnant rabbits = test: Reproductive toxicity study; type: in vivo, rabbit; conditions: intravenous doses up to 2.5 mg/Kg/day during organogenesis
rats [4] = test: One-month intranasal toxicity; type: in vivo, rat; conditions: intranasal up to 50 μg/day for one month
mice of both sexes = test: Intraperitoneal toxicity, 7-day observation; type: in vivo; conditions: intraperitoneal up to 200 mg/Kg
[5] = test system: isolated human nasal chemosensory neurons; test: Electrophysiology: inward currents in isolated nasal chemosensory neurons; type: cell-based
[6] = test system: nasal septal chemosensory epithelium; test: Electrophysiology: electrotonic depolarization of chemosensory epithelium; type: cell-based, human
[7] = Ames reverse mutation assay
dogs [8] = test: 28-day intranasal toxicity; type: in vivo, dog; conditions: intranasal up to 300 μg/day for 28 days
[9] = type: in vivo; conditions: rat, repeated intranasal doses at 10 mg/Kg
rats of both sexes = type: in vivo; conditions: intravenous 1 mg/Kg
dogs [10] = test: Intranasal and intravenous toxicity up to 2.5 mg/Kg; type: in vivo, dog; conditions: intranasal and intravenous up to 2.5 mg/Kg
[11] = test system: individuals meeting the diagnostic criteria for MDD; test: Phase 2 three-arm, double-blind, randomized trial in MDD; type: in vivo, human; conditions: for decrease in average HRSD-17 score from baseline (standard deviation): eight weeks of treatment; for Cohen's d relative to placebo, HRSD-17 item 4 / Cohen's d relative to placebo, HRSD-17 score / decrease in HRSD-17 item 4 (initial insomnia) from baseline: eight weeks
Experimental: In a Phase 2 three-arm, double-blind, randomized trial, individuals received either placebo (a nasal solution containing no pregn-4-en-20-yn-3-one), 3200 ng/day of pregn-4-en-20-yn-3-one (“low dose”), or 6400 ng/day of pregn-4-en-20-yn-3-one (“high dose”), formulated and administered as in the Phase 1 trial. The placebo group and the low dose group administered two sprays per nostril twice/day, the high dose group administered two sprays per nostril four times/day. The trial enrolled 30 individuals, male and female between 18 and 60 years old, meeting the diagnostic criteria for MDD and free of any other Axis I diagnosis according to the DSM-IV-TR, non-suicidal, and not taking any central nervous system medications (including natural products such as St. John's wort). The individuals were required to have a minimum score on the Hamilton Rating Scale for Depression (HRSD-17), a 17-item scale designed for completion by a health professional following a structured interview with the individual, of at least 17, meaning that they were at least moderately depressed; and the primary efficacy criterion in the trial was reduction in HRSD-17 score from baseline.
The trial included ten weekly visits. At the first (screening) visit, the individuals were assessed for depression symptoms and randomized into treatment groups. […] At the second (baseline) visit, they were assessed, trained in self-administration of the nasal spray, and began self-administration of their trial medication. There were seven visits at which they were assessed while on treatment with their trial medication; and one follow-up visit one week after the end of medication administration at which they were given final assessments.
[Cohen's d is the mean difference between groups divided by the pooled standard deviation. For behavioral measures, a Cohen's d of 0.2 represents a small treatment effect; 0.5, a medium treatment effect; and 0.8, a large treatment effect.] […] HRSD-17 item 4 measures initial insomnia (difficulty in falling asleep early in the night), and is scored 0, for no difficulty falling asleep; 1, for complaints of occasional difficulty falling asleep, i.e. more than ½ hour; and 2, complaints of nightly difficulty falling asleep.

[12] = test system: healthy volunteers of both sexes; test: Pilot trials, nasal administration; type: in vivo, human
[13] = escitalopram plus cognitive behavioral therapy for insomnia
[14] = escitalopram plus control quasi-desensitization therapy
[15] = Phase 1, intranasal 400-6400 ng/day over six days

Sequence of glucocorticoid receptors (P04150 whole entry): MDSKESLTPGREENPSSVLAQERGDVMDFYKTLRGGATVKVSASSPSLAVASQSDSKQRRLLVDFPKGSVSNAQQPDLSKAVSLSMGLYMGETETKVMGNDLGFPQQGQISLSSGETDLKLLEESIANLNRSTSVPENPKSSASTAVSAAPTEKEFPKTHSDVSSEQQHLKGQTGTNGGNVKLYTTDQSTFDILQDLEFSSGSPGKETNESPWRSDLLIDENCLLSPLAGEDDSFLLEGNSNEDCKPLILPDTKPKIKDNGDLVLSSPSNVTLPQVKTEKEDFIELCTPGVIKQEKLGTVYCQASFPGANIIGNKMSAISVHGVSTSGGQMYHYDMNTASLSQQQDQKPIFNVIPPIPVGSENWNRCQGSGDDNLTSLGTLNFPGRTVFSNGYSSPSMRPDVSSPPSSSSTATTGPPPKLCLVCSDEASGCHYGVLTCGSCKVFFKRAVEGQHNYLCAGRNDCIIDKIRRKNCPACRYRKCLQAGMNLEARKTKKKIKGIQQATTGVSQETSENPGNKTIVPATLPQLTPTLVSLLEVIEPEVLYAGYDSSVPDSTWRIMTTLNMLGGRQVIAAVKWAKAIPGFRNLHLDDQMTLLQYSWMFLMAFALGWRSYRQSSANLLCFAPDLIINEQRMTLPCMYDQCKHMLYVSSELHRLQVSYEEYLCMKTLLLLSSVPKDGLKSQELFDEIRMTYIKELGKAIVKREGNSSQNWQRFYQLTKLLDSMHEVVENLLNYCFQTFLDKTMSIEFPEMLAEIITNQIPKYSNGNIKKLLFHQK
Sequence of progestin receptors (P06401 whole entry): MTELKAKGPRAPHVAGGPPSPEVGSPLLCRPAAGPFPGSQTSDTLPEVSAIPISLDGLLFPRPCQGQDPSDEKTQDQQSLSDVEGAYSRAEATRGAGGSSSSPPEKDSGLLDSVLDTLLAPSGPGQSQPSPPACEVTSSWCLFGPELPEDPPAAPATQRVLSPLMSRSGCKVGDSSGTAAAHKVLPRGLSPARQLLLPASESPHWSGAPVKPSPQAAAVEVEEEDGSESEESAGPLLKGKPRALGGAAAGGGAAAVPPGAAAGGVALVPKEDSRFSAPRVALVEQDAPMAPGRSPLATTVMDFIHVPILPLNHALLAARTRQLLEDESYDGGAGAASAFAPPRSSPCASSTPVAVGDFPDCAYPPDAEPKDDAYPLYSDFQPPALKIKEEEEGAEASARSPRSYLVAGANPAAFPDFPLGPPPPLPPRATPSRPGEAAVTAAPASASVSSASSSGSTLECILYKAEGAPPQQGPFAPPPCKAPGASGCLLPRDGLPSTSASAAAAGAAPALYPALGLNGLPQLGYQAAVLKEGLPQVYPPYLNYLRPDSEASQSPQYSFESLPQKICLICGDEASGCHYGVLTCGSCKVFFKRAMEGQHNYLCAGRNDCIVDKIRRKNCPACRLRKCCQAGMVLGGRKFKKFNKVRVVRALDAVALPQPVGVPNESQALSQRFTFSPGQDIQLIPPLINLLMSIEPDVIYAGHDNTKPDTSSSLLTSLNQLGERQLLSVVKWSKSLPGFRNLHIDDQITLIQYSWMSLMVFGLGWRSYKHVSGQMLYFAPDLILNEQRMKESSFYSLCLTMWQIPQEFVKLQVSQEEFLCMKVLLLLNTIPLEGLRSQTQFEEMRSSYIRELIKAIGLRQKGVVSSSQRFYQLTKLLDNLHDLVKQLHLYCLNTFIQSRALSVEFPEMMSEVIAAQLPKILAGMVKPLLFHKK
Sequence of androgen receptors (P10275 whole entry): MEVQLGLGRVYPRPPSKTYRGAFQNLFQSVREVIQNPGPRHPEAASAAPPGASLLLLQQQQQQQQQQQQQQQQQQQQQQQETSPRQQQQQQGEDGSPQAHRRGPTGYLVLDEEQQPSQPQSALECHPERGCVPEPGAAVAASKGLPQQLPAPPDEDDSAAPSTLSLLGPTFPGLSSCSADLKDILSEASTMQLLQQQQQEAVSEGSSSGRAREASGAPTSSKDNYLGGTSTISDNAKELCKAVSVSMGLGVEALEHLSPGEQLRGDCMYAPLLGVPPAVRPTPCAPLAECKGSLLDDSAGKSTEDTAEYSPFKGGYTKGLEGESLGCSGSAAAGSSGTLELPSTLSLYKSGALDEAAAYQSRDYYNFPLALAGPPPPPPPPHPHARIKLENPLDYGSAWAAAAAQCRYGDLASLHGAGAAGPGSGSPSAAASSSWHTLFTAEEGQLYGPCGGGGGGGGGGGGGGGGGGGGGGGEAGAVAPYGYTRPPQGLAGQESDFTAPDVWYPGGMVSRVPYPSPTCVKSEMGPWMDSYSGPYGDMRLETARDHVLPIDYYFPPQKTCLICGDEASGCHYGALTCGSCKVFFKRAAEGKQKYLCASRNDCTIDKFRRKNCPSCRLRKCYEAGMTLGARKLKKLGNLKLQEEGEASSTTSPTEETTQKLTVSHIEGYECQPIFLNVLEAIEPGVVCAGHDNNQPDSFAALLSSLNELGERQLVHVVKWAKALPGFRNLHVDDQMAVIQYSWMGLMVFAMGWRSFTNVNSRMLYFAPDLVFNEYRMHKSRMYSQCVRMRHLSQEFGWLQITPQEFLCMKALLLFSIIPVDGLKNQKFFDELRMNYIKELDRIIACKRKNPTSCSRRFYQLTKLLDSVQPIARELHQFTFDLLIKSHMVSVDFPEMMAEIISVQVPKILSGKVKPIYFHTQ

CN(C)CCC[C@@]1(c2ccc(F)cc2)OCc2cc(C#N)ccc21 [escitalopram]
rate of remission of the depression [1, 13]: 61.5% | remission of insomnia [1, 13]: 50.0% | rate of remission of the depression [1, 14]: 33.3% | remission of insomnia [1, 14]: 7.7%

C#C[C@H]1CC[C@H]2[C@@H]3CCC4=CC(=O)CC[C@]4(C)[C@H]3CC[C@]12C [pregn-4-en-20-yn-3-one, Pregn-4-en-20-yn-3-one]
adverse effects on maternal or litter parameters (pregnant rats): no adverse effects on maternal or litter parameters | agonist or antagonist activity (glucocorticoid receptors): no agonist or antagonist activity | agonist or antagonist activity (progestin receptors): no agonist or antagonist activity | deaths, adverse clinical signs, physiological changes, clinical laboratory parameters (rats [2]): no deaths or adverse clinical signs, no physiological changes, or changes in clinical laboratory parameters | affinity for receptors [3]: nor was there any affinity | differences in clinical laboratory values, neuropsychological functioning, brain activity between doses or visits (healthy individuals; Phase 1): No statistically significant differences | differences in safety parameters between the three doses of each treatment group (healthy individuals; Phase 1): no statistically significant differences | most frequent adverse events (healthy individuals; [15]): increased appetite, and dizziness in the high dose group | serious adverse events (healthy individuals; [15]): no serious adverse events | deaths, adverse clinical signs, physiological changes, clinical laboratory parameters (mice): no deaths or adverse clinical signs, no physiological changes, or changes in clinical laboratory parameters | deaths, adverse clinical signs, physiological changes, clinical laboratory parameters (rabbits): no deaths or adverse clinical signs, no physiological changes, or changes in clinical laboratory parameters | mutagenic or clastogenic potential (bone marrow): no evidence of mutagenic or clastogenic potential | agonist or antagonist activity (androgen receptors): no agonist or antagonist activity | agonist or antagonist activity (estrogen receptors): no agonist or antagonist activity | adverse effects on maternal or litter parameters (pregnant rabbits): no adverse effects on maternal or litter parameters | deaths, adverse clinical signs, laboratory or pathology parameters (rats [4]): no deaths or adverse clinical signs or effects on laboratory or pathology parameters | macroscopic or microscopic changes in organs (mice of both sexes): no macroscopic or microscopic changes | mortality or adverse symptoms (mice of both sexes; 7-day period): no mortality or adverse symptoms | inward currents in isolated human nasal chemosensory neurons [5]: induced inward currents | concentration of maximal response (amplitude) ([5]; amplitude increased depending on concentration): 10^−7 to 10^−5 M | electrotonic depolarization of the nasal septal chemosensory epithelium [6]: electrotonic depolarization | mutagenic or clastogenic potential [7]: no evidence of mutagenic or clastogenic potential | deaths, adverse clinical signs, laboratory or pathology parameters (dogs [8]): no deaths or adverse clinical signs or effects on the laboratory or pathology parameters | systemic exposure [9]: very low systemic exposure (below the limit of accurate quantitation) | pathological changes (rats of both sexes): no pathological changes | changes in behavior (rats of both sexes; 8-day period): no changes in behavior | deaths, adverse clinical signs, physiological changes, clinical laboratory parameters (dogs [10]): no deaths or adverse clinical signs, no physiological changes, or changes in clinical laboratory parameters | serious adverse events ([11]; Phase 2, any of the groups): no serious adverse events reported | decrease in average HRSD-17 score from baseline (standard deviation) ([11]; high dose 6400 ng/day intranasal): 18.6 (8.7) | Cohen's d relative to placebo, HRSD-17 item 4 ([11]; high dose 6400 ng/day): 1.60 | Cohen's d relative to placebo, HRSD-17 score ([11]; high dose 6400 ng/day): 0.82 | decrease in HRSD-17 item 4 (initial insomnia) from baseline ([11]; high dose 6400 ng/day): 1.4 (0.25) | decrease in average HRSD-17 score from baseline (standard deviation) ([11]; low dose 3200 ng/day intranasal): 18.3 (7.7) | Cohen's d relative to placebo, HRSD-17 item 4 ([11]; low dose 3200 ng/day): 0.39 | Cohen's d relative to placebo, HRSD-17 score ([11]; low dose 3200 ng/day): 0.86 | decrease in HRSD-17 item 4 (initial insomnia) from baseline ([11]; low dose 3200 ng/day): 0.6 (0.3) | time to effect on a depressive disorder or its symptoms ([11]; nasal administration): ≤ 1 week | change in heart rate ([12]; intranasal): did not produce statistically significant change | change in respiratory rate ([12]; intranasal): did not produce statistically significant change | duration of the QTC intervals of the electrocardiogram ([12]; intranasal): did not change | effect on alpha and beta frequency bands of electroencephalogram ([12]; intranasal): did not have significant effect | effect on body temperature ([12]; intranasal): did not have significant effect | frequency of electrodermal activity events (skin conductance) ([12]; intranasal): did significantly increase | tolerability ([12]; nasal administration): well tolerated
